Results on three compounds are retold here after patent publication US6967201B1, “Benzofurylpiperazines and benzofurylhomopiperazines: serotonin agonists” (Eli Lilly and Company, priority 1999, dated 2005).

Broadly, the melting point is the temperature of the solid-liquid transition. As for `C[C@@H]1CN(c2ccc(F)c3ccoc23)CCN1.O=C(O)C(=O)O`, the melting point is 192 °C (dec.).

In turn, `CC1(C)CNCCN1c1cc(F)cc2ccoc12.O=C(O)/C=C/C(=O)O` had a melting point of 162 to 165 °C. For `C[C@H]1CN(c2ccc(F)c3ccoc23)CCN1.O=C(O)C(=O)O` the value was 191 °C (dec.).
